Results as given in ChEMBL document CHEMBL3885881, “DrugMatrix”.

Species on record: Rattus norvegicus
Test: DrugMatrix - Regimen: Daily Repeat
Assay type: toxicity, organism-based, Sprague-Dawley
Parameters: regimen Daily Repeat, gender Male, age 6-8 weeks
Conditions: in vivo, po, route oral GAVAGE, vehicle .5 % CMC; for ABSOLUTE BASOPHIL / ABSOLUTE EOSINOPHIL / ABSOLUTE LYMPHOCYTE / ABSOLUTE MONOCYTE / ABSOLUTE SEGMENTED NEUTROPHIL / BASOPHIL / EOSINOPHIL / ERYTHROCYTE COUNT / HEMATOCRIT / HEMOGLOBIN / LEUKOCYTE COUNT / LYMPHOCYTE / MEAN CORPUSCULAR HEMOGLOBIN / MEAN CORPUSCULAR HEMOGLOBIN CONCENTRATION / MEAN CORPUSCULAR VOLUME / MONOCYTE / NEUTROPHIL / NUCLEATED RED BLOOD CELLS / PLATELET COUNT: tissue Blood; for ALANINE AMINOTRANSFERASE / ALBUMIN / ALKALINE PHOSPHATASE / ASPARTATE AMINOTRANSFERASE / BLOOD UREA NITROGEN / CARBON DIOXIDE / CHLORIDE / CHOLESTEROL / CREATINE PHOSPHOKINASE / CREATININE / GLUCOSE / LACTATE DEHYDROGENASE / LIPASE / PHOSPHORUS / POTASSIUM / SODIUM / TOTAL BILIRUBIN / TOTAL PROTEIN / URIC ACID: tissue Plasma
[1] = 150 mg/kg, 120 h, dose level Low, time 5 day
[2] = 1500 mg/kg, 72 h, dose level High, time 3 day
[3] = 1500 mg/kg, 120 h, dose level High, time 5 day

Compound: C[C@]1(Cn2ccnn2)[C@H](C(=O)O)N2C(=O)C[C@H]2S1(=O)=O [TAZOBACTAM]
- ABSOLUTE BASOPHIL [1]: 0 CELLS/uL
- ABSOLUTE EOSINOPHIL [1]: 96 CELLS/uL
- ABSOLUTE LYMPHOCYTE [1]: 12730.67 CELLS/uL
- ABSOLUTE MONOCYTE [1]: 0 CELLS/uL
- ABSOLUTE SEGMENTED NEUTROPHIL [1]: 1940 CELLS/uL
- BASOPHIL [1]: 0%
- EOSINOPHIL [1]: 0.67%
- ERYTHROCYTE COUNT [1]: 5.47 x10E6/uL
- HEMATOCRIT [1]: 33.33%
- HEMOGLOBIN [1]: 12.73 G/DL
- LEUKOCYTE COUNT [1]: 14.77 x10E3/uL
- LYMPHOCYTE [1]: 86%
- MEAN CORPUSCULAR HEMOGLOBIN [1]: 23.3 pg
- MEAN CORPUSCULAR HEMOGLOBIN CONCENTRATION [1]: 38.2 G/DL
- MEAN CORPUSCULAR VOLUME [1]: 60.97 fL
- MONOCYTE [1]: 0%
- NEUTROPHIL [1]: 13.33%
- NUCLEATED RED BLOOD CELLS [1]: 0 /100WBC
- PLATELET COUNT [1]: 1082 x10E3/uL
- ALANINE AMINOTRANSFERASE [1]: 60.67 u/L
- ALBUMIN [1]: 4.2 G/DL
- ALKALINE PHOSPHATASE [1]: 333 u/L
- ASPARTATE AMINOTRANSFERASE [1]: 84 u/L
- BLOOD UREA NITROGEN [1]: 17.33 mg/dL
- CARBON DIOXIDE [1]: 23.33 mmol/L
- CHLORIDE [1]: 104.33 MEQ/L
- CHOLESTEROL [1]: 76.67 mg/dL
- CREATINE PHOSPHOKINASE [1]: 277 u/L
- CREATININE [1]: 0.21 mg/dL
- GLUCOSE [1]: 141.33 mg/dL
- LACTATE DEHYDROGENASE [1]: 295.67 u/L
- LIPASE [1]: 9 u/L
- PHOSPHORUS [1]: 13.07 mg/dL
- POTASSIUM [1]: 6.29 MEQ/L
- SODIUM [1]: 144.97 MEQ/L
- TOTAL BILIRUBIN [1]: 0.17 mg/dL
- TOTAL PROTEIN [1]: 5.8 G/DL
- URIC ACID [1]: 1.83 mg/dL
- ABSOLUTE BASOPHIL [2]: 0 CELLS/uL
- ABSOLUTE EOSINOPHIL [2]: 240.33 CELLS/uL
- ABSOLUTE LYMPHOCYTE [2]: 12544 CELLS/uL
- ABSOLUTE MONOCYTE [2]: 44.33 CELLS/uL
- ABSOLUTE SEGMENTED NEUTROPHIL [2]: 838 CELLS/uL
- BASOPHIL [2]: 0%
- EOSINOPHIL [2]: 1.67%
- ERYTHROCYTE COUNT [2]: 5.29 x10E6/uL
- HEMATOCRIT [2]: 33.47%
- HEMOGLOBIN [2]: 12.83 G/DL
- LEUKOCYTE COUNT [2]: 13.67 x10E3/uL
- LYMPHOCYTE [2]: 91.67%
- MEAN CORPUSCULAR HEMOGLOBIN [2]: 24.23 pg
- MEAN CORPUSCULAR HEMOGLOBIN CONCENTRATION [2]: 38.33 G/DL
- MEAN CORPUSCULAR VOLUME [2]: 63.23 fL
- MONOCYTE [2]: 0.33%
- NEUTROPHIL [2]: 6.33%
- NUCLEATED RED BLOOD CELLS [2]: 0 /100WBC
- PLATELET COUNT [2]: 1291.33 x10E3/uL
- ALANINE AMINOTRANSFERASE [2]: 65.33 u/L
- ALBUMIN [2]: 4.1 G/DL
- ALKALINE PHOSPHATASE [2]: 447.33 u/L
- ASPARTATE AMINOTRANSFERASE [2]: 89 u/L
- BLOOD UREA NITROGEN [2]: 15.67 mg/dL
- CARBON DIOXIDE [2]: 27.33 mmol/L
- CHLORIDE [2]: 102.67 MEQ/L
- CHOLESTEROL [2]: 73.33 mg/dL
- CREATINE PHOSPHOKINASE [2]: 209.33 u/L
- CREATININE [2]: 0.18 mg/dL
- GLUCOSE [2]: 161.67 mg/dL
- LACTATE DEHYDROGENASE [2]: 102 u/L
- LIPASE [2]: 9 u/L
- PHOSPHORUS [2]: 13.27 mg/dL
- POTASSIUM [2]: 6.83 MEQ/L
- SODIUM [2]: 146.53 MEQ/L
- TOTAL BILIRUBIN [2]: 0.17 mg/dL
- TOTAL PROTEIN [2]: 5.63 G/DL
- URIC ACID [2]: 1.73 mg/dL
- ABSOLUTE BASOPHIL [3]: 0 CELLS/uL
- ABSOLUTE EOSINOPHIL [3]: 130.33 CELLS/uL
- ABSOLUTE LYMPHOCYTE [3]: 11683.33 CELLS/uL
- ABSOLUTE MONOCYTE [3]: 0 CELLS/uL
- ABSOLUTE SEGMENTED NEUTROPHIL [3]: 1019.67 CELLS/uL
- BASOPHIL [3]: 0%
- EOSINOPHIL [3]: 1%
- ERYTHROCYTE COUNT [3]: 5.74 x10E6/uL
- HEMATOCRIT [3]: 36.23%
- HEMOGLOBIN [3]: 13.93 G/DL
- LEUKOCYTE COUNT [3]: 12.83 x10E3/uL
- LYMPHOCYTE [3]: 91%
- MEAN CORPUSCULAR HEMOGLOBIN [3]: 24.47 pg
- MEAN CORPUSCULAR HEMOGLOBIN CONCENTRATION [3]: 38.5 G/DL
- MEAN CORPUSCULAR VOLUME [3]: 63.5 fL
- MONOCYTE [3]: 0%
- NEUTROPHIL [3]: 8%
- NUCLEATED RED BLOOD CELLS [3]: 0 /100WBC
- PLATELET COUNT [3]: 1185.67 x10E3/uL
- ALANINE AMINOTRANSFERASE [3]: 58.67 u/L
- ALBUMIN [3]: 4.4 G/DL
- ALKALINE PHOSPHATASE [3]: 302 u/L
- ASPARTATE AMINOTRANSFERASE [3]: 76 u/L
- BLOOD UREA NITROGEN [3]: 18.33 mg/dL
- CARBON DIOXIDE [3]: 27 mmol/L
- CHLORIDE [3]: 104 MEQ/L
- CHOLESTEROL [3]: 62.67 mg/dL
- CREATINE PHOSPHOKINASE [3]: 174 u/L
- CREATININE [3]: 0.22 mg/dL
- GLUCOSE [3]: 170 mg/dL
- LACTATE DEHYDROGENASE [3]: 115.67 u/L
- LIPASE [3]: 9 u/L
- PHOSPHORUS [3]: 12.83 mg/dL
- POTASSIUM [3]: 6.45 MEQ/L
- SODIUM [3]: 148.17 MEQ/L
- TOTAL BILIRUBIN [3]: 0.2 mg/dL
- TOTAL PROTEIN [3]: 6.2 G/DL
- URIC ACID [3]: 1.8 mg/dL
